Results: the supplement of paper PMC11451515

Columns and labels:
Details in all cases: 48 h
NOMO1 [1] = test: cell viability relative to DMSO control; higher = less cytotoxic
In short: (§1)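 Library compounds in DMSO were pin-dosed in an 11-point threefold series (47 μM to 0.79 nM) onto leukemia cells in 1536-well plates (5 μl). Plates held 500 cells/well of NOMO1 or SEM or 1000 cells/well of P12-Ichikawa, each adapted for at least four passages in each medium. Luminescence was read with CellTiter-Glo One after 48 h at 37°C. Viability means the per-plate percentage relative to DMSO wells, using cell-free wells as background.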

P12-Ichikawa [2] = test: as above
In short: as §1

SEM cells [3] = test: as above
In short: as §1

NOMO1 [4] = test: AUC of viability dose-response curve (% viability x log10 dose units); higher = less sensitive
In short: (§2)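 Leukemia cells adapted to each medium were seeded in 1536-well plates (500 or 1000 cells/well) and given library compounds in DMSO for 48 h at 37°C. The 11 threefold doses spanned 47 μM to 0.79 nM, and CellTiter-Glo One luminescence was normalised per plate to DMSO and cell-free wells before four-parameter log-logistic fitting on log10 dose. Area under the curve was integrated with the trapezoidal rule, scaling curves above full viability and removing curves that failed quality control.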

P12-Ichikawa [5] = test: as above
In short: as §2

SEM cells [6] = test: as above
In short: as §2

CC[C@]12\C=C/CN3CC[C@]4([C@@H](N(C)C5=CC(=C(C=C45)[C@]6(C[C@H]7C[C@H](CN(C7)CC8=C6[NH]C9=C8C=CC=C9)C(C)(F)F)C(=O)OC)OC)[C@](O)([C@@H]1OC(C)=O)C(=O)OC)[C@H]23
cell viability [%]
Details	NOMO1 [1]	P12-Ichikawa [2]	SEM cells [3]
HPLM + 10% dialyzed FBS, 0.000781 µM	102	91.9	107
HPLM + 10% dialyzed FBS, 0.00234 µM	102	93.3	97.9
HPLM + 10% dialyzed FBS, 0.00702 µM	97.5	92	94.9
HPLM + 10% dialyzed FBS, 0.0211 µM	72.8	69.4	74.6
HPLM + 10% dialyzed FBS, 0.0632 µM	28.2	37	29.3
HPLM + 10% dialyzed FBS, 0.19 µM	28.1	12	21.1
HPLM + 10% dialyzed FBS, 0.569 µM	36	15.3	22
HPLM + 10% dialyzed FBS, 1.71 µM	38.6	13.2	22
HPLM + 10% dialyzed FBS, 5.12 µM	36.8	8.31	25
HPLM + 10% dialyzed FBS, 15.4 µM	36.1	8.59	17.8
HPLM + 10% dialyzed FBS, 46.1 µM	28.7	6.21	6.8
RPMI 5 mM glucose + 10% FBS, 0.000781 µM	95	93.7	120
RPMI 5 mM glucose + 10% FBS, 0.00234 µM	96.9	88.8	120
RPMI 5 mM glucose + 10% FBS, 0.00702 µM	91.9	85.9	87.4
RPMI 5 mM glucose + 10% FBS, 0.0211 µM	85.2	63.7	76.9
RPMI 5 mM glucose + 10% FBS, 0.0632 µM	24.5	18.6	18.7
RPMI 5 mM glucose + 10% FBS, 0.19 µM	18.5	13.9	18.8
RPMI 5 mM glucose + 10% FBS, 0.569 µM	21.6	20.9	17.3
RPMI 5 mM glucose + 10% FBS, 1.71 µM	22.3	11.4	20.2
RPMI 5 mM glucose + 10% FBS, 5.12 µM	22.3	8.45	15.6
RPMI 5 mM glucose + 10% FBS, 15.4 µM	23.7	7.91	11.3
RPMI 5 mM glucose + 10% FBS, 46.1 µM	20.1	5.99	6.89
RPMI 5 mM glucose + 10% dialyzed FBS, 0.000781 µM	91.5	87.4	95.3
RPMI 5 mM glucose + 10% dialyzed FBS, 0.00234 µM	92.4	83	83
RPMI 5 mM glucose + 10% dialyzed FBS, 0.00702 µM	91.6	83.5	74.5
RPMI 5 mM glucose + 10% dialyzed FBS, 0.0211 µM	93.7	79.3	68.9
RPMI 5 mM glucose + 10% dialyzed FBS, 0.0632 µM	57.5	51.6	43.2
RPMI 5 mM glucose + 10% dialyzed FBS, 0.19 µM	30.6	27.1	21.2
RPMI 5 mM glucose + 10% dialyzed FBS, 0.569 µM	24.2	26.5	16.9
RPMI 5 mM glucose + 10% dialyzed FBS, 1.71 µM	26.3	21.5	18.9
RPMI 5 mM glucose + 10% dialyzed FBS, 5.12 µM	27.5	16.1	21
RPMI 5 mM glucose + 10% dialyzed FBS, 15.4 µM	26.8	13	15.3
RPMI 5 mM glucose + 10% dialyzed FBS, 46.1 µM	20.8	5.7	5.17

AUC of viability dose-response curve
Details	NOMO1 [4]	P12-Ichikawa [5]	SEM cells [6]
HPLM + 10% dialyzed FBS	256	189	215
RPMI 5 mM glucose + 10% FBS	221	176	179
RPMI 5 mM glucose + 10% dialyzed FBS	250	212	196

Nc1nc(N)c2nc(-c3cccc(O)c3)c(-c3cccc(O)c3)nc2n1
cell viability [%]
Details	NOMO1 [1]	P12-Ichikawa [2]	SEM cells [3]
HPLM + 10% dialyzed FBS, 0.000781 µM	124	117	110
HPLM + 10% dialyzed FBS, 0.00234 µM	135	113	120
HPLM + 10% dialyzed FBS, 0.00702 µM	110	113	120
HPLM + 10% dialyzed FBS, 0.0211 µM	128	110	135
HPLM + 10% dialyzed FBS, 0.0632 µM	116	120	111
HPLM + 10% dialyzed FBS, 0.19 µM	126	117	125
HPLM + 10% dialyzed FBS, 0.569 µM	123	94.6	104
HPLM + 10% dialyzed FBS, 1.71 µM	108	89.9	106
HPLM + 10% dialyzed FBS, 5.12 µM	79.6	81.2	94.5
HPLM + 10% dialyzed FBS, 15.4 µM	47.8	72.2	35
HPLM + 10% dialyzed FBS, 46.1 µM	17	55.2	8.06
RPMI 5 mM glucose + 10% FBS, 0.000781 µM	106	108	124
RPMI 5 mM glucose + 10% FBS, 0.00234 µM	115	117	125
RPMI 5 mM glucose + 10% FBS, 0.00702 µM	102	113	125
RPMI 5 mM glucose + 10% FBS, 0.0211 µM	116	109	129
RPMI 5 mM glucose + 10% FBS, 0.0632 µM	112	122	103
RPMI 5 mM glucose + 10% FBS, 0.19 µM	117	112	118
RPMI 5 mM glucose + 10% FBS, 0.569 µM	105	118	120
RPMI 5 mM glucose + 10% FBS, 1.71 µM	111	118	110
RPMI 5 mM glucose + 10% FBS, 5.12 µM	91.6	101	108
RPMI 5 mM glucose + 10% FBS, 15.4 µM	90.6	89	73.8
RPMI 5 mM glucose + 10% FBS, 46.1 µM	4.68	28.1	13.8
RPMI 5 mM glucose + 10% dialyzed FBS, 0.000781 µM	119	111	119
RPMI 5 mM glucose + 10% dialyzed FBS, 0.00234 µM	106	116	99.4
RPMI 5 mM glucose + 10% dialyzed FBS, 0.00702 µM	107	113	129
RPMI 5 mM glucose + 10% dialyzed FBS, 0.0211 µM	112	123	106
RPMI 5 mM glucose + 10% dialyzed FBS, 0.0632 µM	114	120	105
RPMI 5 mM glucose + 10% dialyzed FBS, 0.19 µM	110	114	114
RPMI 5 mM glucose + 10% dialyzed FBS, 0.569 µM	105	107	98.8
RPMI 5 mM glucose + 10% dialyzed FBS, 1.71 µM	108	116	96.5
RPMI 5 mM glucose + 10% dialyzed FBS, 5.12 µM	96.7	108	97.2
RPMI 5 mM glucose + 10% dialyzed FBS, 15.4 µM	78.5	95.5	61
RPMI 5 mM glucose + 10% dialyzed FBS, 46.1 µM	42.2	52.1	18.2

AUC of viability dose-response curve
Details	NOMO1 [4]	P12-Ichikawa [5]	SEM cells [6]
HPLM + 10% dialyzed FBS	402	409	409
RPMI 5 mM glucose + 10% FBS	443	445	430
RPMI 5 mM glucose + 10% dialyzed FBS	440	454	420

C[C@]12CC[C@H]3[C@@H](C\C=C/4C[C@@H](O)CC[C@]34C)[C@@H]1CCC2=O
cell viability [%]
Details	NOMO1 [1]	P12-Ichikawa [2]	SEM cells [3]
HPLM + 10% dialyzed FBS, 0.000781 µM	115	111	103
HPLM + 10% dialyzed FBS, 0.00234 µM	134	110	98.2
HPLM + 10% dialyzed FBS, 0.00702 µM	117	117	91.1
HPLM + 10% dialyzed FBS, 0.0211 µM	121	108	102
HPLM + 10% dialyzed FBS, 0.0632 µM	147	110	98.4
HPLM + 10% dialyzed FBS, 0.19 µM	117	115	94.6
HPLM + 10% dialyzed FBS, 0.569 µM	111	107	99.8
HPLM + 10% dialyzed FBS, 1.71 µM	110	111	98.2
HPLM + 10% dialyzed FBS, 5.12 µM	103	58	83.4
HPLM + 10% dialyzed FBS, 15.4 µM	110	102	107
HPLM + 10% dialyzed FBS, 46.1 µM	84.7	96.2	103
RPMI 5 mM glucose + 10% FBS, 0.000781 µM	116	–	108
RPMI 5 mM glucose + 10% FBS, 0.00234 µM	126	–	114
RPMI 5 mM glucose + 10% FBS, 0.00702 µM	116	–	121
RPMI 5 mM glucose + 10% FBS, 0.0211 µM	104	–	135
RPMI 5 mM glucose + 10% FBS, 0.0632 µM	116	–	136
RPMI 5 mM glucose + 10% FBS, 0.19 µM	105	–	111
RPMI 5 mM glucose + 10% FBS, 0.569 µM	121	–	135
RPMI 5 mM glucose + 10% FBS, 1.71 µM	112	–	115
RPMI 5 mM glucose + 10% FBS, 5.12 µM	117	–	93.1
RPMI 5 mM glucose + 10% FBS, 15.4 µM	103	–	116
RPMI 5 mM glucose + 10% FBS, 46.1 µM	98	–	97.5
RPMI 5 mM glucose + 10% dialyzed FBS, 0.000781 µM	120	111	112
RPMI 5 mM glucose + 10% dialyzed FBS, 0.00234 µM	108	109	97.1
RPMI 5 mM glucose + 10% dialyzed FBS, 0.00702 µM	115	115	118
RPMI 5 mM glucose + 10% dialyzed FBS, 0.0211 µM	119	108	128
RPMI 5 mM glucose + 10% dialyzed FBS, 0.0632 µM	118	122	127
RPMI 5 mM glucose + 10% dialyzed FBS, 0.19 µM	106	114	136
RPMI 5 mM glucose + 10% dialyzed FBS, 0.569 µM	114	105	130
RPMI 5 mM glucose + 10% dialyzed FBS, 1.71 µM	108	102	121
RPMI 5 mM glucose + 10% dialyzed FBS, 5.12 µM	103	99.1	94.3
RPMI 5 mM glucose + 10% dialyzed FBS, 15.4 µM	109	101	115
RPMI 5 mM glucose + 10% dialyzed FBS, 46.1 µM	106	98.5	112

AUC of viability dose-response curve
Details	NOMO1 [4]	P12-Ichikawa [5]	SEM cells [6]
HPLM + 10% dialyzed FBS	439	449	468
RPMI 5 mM glucose + 10% FBS	448	438	454
RPMI 5 mM glucose + 10% dialyzed FBS	460	454	462
